Results on five molecules are retold here after patent publication US20240041023A1, “COMPOSITION AND METHOD OF PRESERVING VIABILITY OF CELL IN A LOW TEMPERATURE” (THE UNITED STATES OF AMERICA, AS REPRESENTED BY THE …, priority 2020, published 2024).

Entries after “also recorded” stand apart in the source; their conditions may differ.

One assay deals with mouse pancreatic islets. Nature of the assay: Cold survival of mouse pancreatic islets in preservation solutions. In kind it is cell-based. The following applies: N-EM added into UW solution, 2-D08 or ginkgolic acid added into HS solution. How it is done:
(§1) N-EM and protease inhibitors are added into HS to make HS+.

The subject of assay [1] is FOXO1. Nature of the assay: FOXO1-dependent survival pathway and FOXO1 nuclear entry in cold stored mouse islets. It is filed as cell-based. Conditions: mouse pancreatic islets; inhibitor added to HS solution. How it is done: as §1
The test system of assay [2] is rat corneal endothelial cells. Nature of the assay: Cold preservation of rat cornea: endothelial cell mortality (PI positive cells) and immunofluorescence staining. It is filed as cell-based. The following applies: 6-month-old rat cornea. How it is done: After injection of 0.5 μL C6 solution (10 μM/μL in goat serum solvent) into the anterior chamber of the eye through the limbal stroma. After 90 minutes, the cornea was taken and cold stored in a corneal preservation solution. After cold storage for 3 weeks and 4 weeks, the cold storage results were evaluated by immunofluorescence staining.
The corneal preservation solution of this example is the novel corneal preservation solution prepared in Example 3, with 20 μM C6 and the protease inhibitor mixture Pi (as described in WO2019/040359A1) added, and the final concentrations of the components in the protease inhibitor mixture Pi in the cold preservation solution are respectively: pepstatin 1 μM; leupeptin 2 μM; bestatin 5 μM; […] 0.5 μM; aprotinin 0.08 μM; AEBSF 100 μM.
0.5 μL of Apigenin solution (concentration 4 μM/μL, in goat serum solvent) was injected into the anterior chamber through the limbal stroma, and 20 minutes later, the cornea was removed and stored in the novel preservation solution prepared in Example 3 (with 4 μM Apigenin and Pi previously added). After cold storage for 3 weeks and 4 weeks, the cold storage results were evaluated by immunofluorescence staining.

Assay [3] relates to FOXO1. Briefly: FOXO1 nuclear entry in corneal endothelial cells after anterior chamber injection (immunofluorescence). In kind it is in vivo, rat. The following applies: 6-month-old rats.
A further assay concerns mice pancreatic islets. Nature of the assay: Mouse pancreatic islets stored at 4° C. versus 1640 culture solution. It is filed as cell-based. The following applies: mice pancreatic islets stored at 4° C.; C6 and Apigenin added to the novel preservation solution (MM). The protocol:
In another example, mice pancreatic islets were extracted and stored at 4° C. in cold storage. The conventional 1640 culture solution which is commonly used is used as a control group.

The test system of another assay is human islets. Briefly: Cold storage of human islets. In kind it is cell-based. The following applies: prolonged cold storage.
[4] abbreviates: after anterior chamber injection (C6 20 μM/μL, Apigenin 4 μM/μL, goat serum solvent), before cold stimulation.
Where [5] appears, read: after anterior chamber injection and cold stimulation.

Consider `O=c1cc(-c2ccc(O)c(O)c2O)oc2ccccc12` [2-D08], for which the “islet cold survival / islet cell death” value with mouse pancreatic islets was “islet cell death became severe”. Besides, in the assay on FOXO1 [1], the “cold-induced FOXO1 nuclear entry” value is “repressed”.

For `O=c1cc(-c2ccc(O)cc2)oc2cc(O)cc(O)c12` [Apigenin], the “corneal endothelial cell death, in words” value in assay [2] (cold preservation 3 weeks) is “decreased mortality”; in assay [2] (cold storage 4 weeks), “significantly reduced”. For the same molecule, the “corneal endothelium structure (hexagonal structure, F-actin, nuclei)” value in assay [2] (cold storage 4 weeks (28 days, 4° C.)) is reported as “largely intact endothelium”. In addition, the “FOXO1 nucleus entry in corneal endothelial cells” value was “did not cause FOXO1 to enter nucleus” in the assay with FOXO1 [3] (setting [4]); “activated FOXO1 to enter the nucleus” in the assay on FOXO1 [3] (setting [5]); “weak nuclear entering effect is still maintained” in the assay on FOXO1 [3] (after cold stimulation and rewarming). Also, the islet cell death entry with mice pancreatic islets is recorded as “further reduced the number of dead cells”.

For the molecule `CCCCCCCCCCCCC/C=C/[C@@H](O)[C@H](CO)NC(=O)CCCCC` [C6, C6 ceramide], the “corneal endothelial cell death, in words” value in assay [2] (cold preservation 3 weeks) is on record as “reduction in the number of dead corneal endothelial cells”. The “FOXO1 nucleus entry in corneal endothelial cells” value with FOXO1 [3] (setting [4]) is “activate FOXO1 nucleus entry”; in the assay with FOXO1 [3] (setting [5]), “nucleus entry signal was enhanced”. In the assay with mice pancreatic islets, the islet cell death entry is reported as “further reduced the number of dead cells”.

With `CCN1C(=O)C=CC1=O` [N-Ethylmaleimide], the “islet cold survival / islet cell death” value in the assay on mouse pancreatic islets is “enables longer term cold storage; also recorded: islet cold survival is improved”. Further, the “outcome of cold storage of human islets” value in the assay on human islets is given as “enables longer term cold storage”.

Consider ginkgolic acid, for which, in the assay with mouse pancreatic islets, the “islet cold survival / islet cell death” value is given as “islet cell death became severe”. Besides, in the assay on FOXO1 [1], the “cold-induced FOXO1 nuclear entry” value is “repressed”.
